These results are taken from patent publication US20050070511A1, “2-methylene-19-nor-vitamin D2 compounds” (Wisconsin Alumni Research Foundation, priority 2003, published 2005).

In assay [1] the target is T1, vitamin D pig intestinal nuclear receptor (Sus scrofa, UniProt A3RGC1).
T1 construct: the vitamin D pig intestinal nuclear receptor; from tissue; host or cells: pig intestine (nuclear receptor preparation)
T1 sequence (A3RGC1 1-427): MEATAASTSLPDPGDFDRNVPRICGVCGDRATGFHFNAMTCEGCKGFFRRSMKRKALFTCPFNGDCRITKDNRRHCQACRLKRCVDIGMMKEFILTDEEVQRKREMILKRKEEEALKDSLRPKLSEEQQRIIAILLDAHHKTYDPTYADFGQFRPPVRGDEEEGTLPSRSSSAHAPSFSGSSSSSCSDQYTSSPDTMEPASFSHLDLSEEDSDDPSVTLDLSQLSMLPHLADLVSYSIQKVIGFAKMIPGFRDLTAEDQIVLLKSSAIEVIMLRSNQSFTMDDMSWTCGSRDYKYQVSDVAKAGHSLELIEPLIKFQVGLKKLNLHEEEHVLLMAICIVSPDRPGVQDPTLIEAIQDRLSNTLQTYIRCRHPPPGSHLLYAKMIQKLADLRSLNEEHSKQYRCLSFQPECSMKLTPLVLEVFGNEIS
Briefly: Competitive binding of [3H]-1α,25-(OH)2-D3 to the porcine intestinal vitamin D receptor. To be noted: FIG. 1, in words. As to the method: FIG. 1 is a graph illustrating the relative activity of 2-methylene-19-nor-24(S)-20(R)-1α,25-dihydroxyvitamin D2, 2-methylene-19-nor-24(R)-20(R)-1α,25-dihydroxyvitamin D2 and 1α,25-dihydroxyvitamin D3 to compete for binding of [^3H]-1α,25-(OH)2-D3 to the vitamin D pig intestinal nuclear receptor.
Competitive binding of the analogs to the porcine intestinal receptor was carried out by the method described by Dame et al. (Biochemistry 25, 4523-4534, 1986).

Assay [2] has as its system HL-60 cells. The assay can be described thus: Differentiation of HL-60 promyelocytes into monocytes. To be noted: FIG. 2, in words. Format: cell-based. The protocol: FIG. 2 is a graph illustrating the percent HL-60 cell differentiation as a function of the concentration of 2-methylene-19-nor-24(S)-20(R)-1α,25-dihydroxyvitamin D2, 2-methylene-19-nor-24(R)-20(R)-1α,25-dihydroxyvitamin D2, and 1α,25-dihydroxyvitamin D3.
The differentiation of HL-60 promyelocytic into monocytes was determined as described by Ostrem et al. (J. Biol. Chem. 262, 14164-14171, 1987).

In assay [3] the test system is Male, weanling Sprague-Dawley rats. Briefly: Serum calcium (bone calcium mobilization) in vitamin D-deficient rats. Format: in vivo, rat. To be noted: for Mobilization of calcium from bone compared with 1α,25-dihydroxyvitamin D3: FIG. 4, in words; for Serum Calcium (bone calcium mobilization): rats on low Ca diet, i.p. daily, average ± SE from 5 animals. The protocol:
(§1) Male, weanling Sprague-Dawley rats were placed on Diet 11 (0.47% Ca)+AEK for 11 days, followed by Diet 11 (0.02% Ca)+AEK for 31 days. Dosing (i.p.) began 7 days prior to sacrifice. Doses were given on a daily basis, 24 hours apart. The first 10 cm of the intestine was collected for gut transport studies and serum was collected for bone Ca mobilization analysis. The results are reported in TABLE 1 and illustrated in the graph of FIGS. 3 and 4.
The in vivo tests of serum calcium of rats on a zero calcium diet provides an insight into […] or bone activity of the 2-methylene-24(S) and 24(R) derivatives of 19-nor-1α,25-dihydroxyvitamin D2. […] At the same time, the activity of the 2-methylene-24(S) and 24(R) derivatives of 19-nor-1α,25-dihydroxyvitamin D2 on intestinal calcium transport is approximately equal to that of 1,25-(OH)2D3 (FIG. 3).

For assay [4] the test system is unchanged. Briefly: Intestinal calcium transport in vitamin D-deficient rats. The settings on record: for Activity in stimulating intestinal calcium transport compared with 1α,25-dihydroxyvitamin D3: FIG. 3, in words; for Intestinal Calcium Transport (S/M): rats on low Ca diet, i.p. daily, average ± SE from 5 animals. Format: in vivo, rat. As to the method:
as §1

The structures appear in SMILES notation.

On to `C=C1[C@H](O)CC(=C/C=C2\CCC[C@@]3(C)C2CCC3[C@H](C)/C=C/[C@H](C)C(C)(C)O)C[C@H]1O` (stereo partly drawn) [(20R,24S)D2, (20R,24S)-1α,25-dihydroxy-2-methylene-19-nor-vitamin D2], for which, in assay [1], the “Binding to the vitamin D receptor compared with 1,25(OH)2D3” value is recorded as “more active than 1,25(OH)2D3”. Moreover, the “HL-60 differentiation potency compared with 1,25(OH)2D3” value in assay [2] is reported as “significantly more potent than 1,25(OH)2D3”. Moreover, in assay [3], the “Mobilization of calcium from bone compared with 1α,25-dihydroxyvitamin D3” value is listed as “minimal activity on bone”. In addition, the “Serum Calcium (bone calcium mobilization)” value (shortened to “Serum Calcium”) was 4.7 ± 0.13 mg/100 mL in assay [3] (130 pmol/day/7 days) and 5.04 ± 0.14 mg/100 mL in assay [3] (260 pmol/day/7 days). In assay [4], the “Activity in stimulating intestinal calcium transport compared with 1α,25-dihydroxyvitamin D3” value is recorded as “activity about the same as that of 1α,25-dihydroxyvitamin D3”. Besides, the “Intestinal Calcium Transport (S/M)” value in assay [4] (130 pmol/day/7 days) is given as 11.62 ± 0.69 S/M; in assay [4] (260 pmol/day/7 days) it was 11.14 ± 0.74 S/M.

On to `C=C1/C(=C\C=C2/CCC[C@]3(C)[C@@H]([C@H](C)CCCC(C)(C)O)CC[C@@H]23)C[C@@H](O)C[C@@H]1O` [1,25-(OH)2D3, 1α,25-dihydroxyvitamin D3, reference compound], for which the “Serum Calcium” value in assay [3] (260 pmol/day/7 days) is given as 5.72 ± 0.14 mg/100 mL. The “Intestinal Calcium Transport (S/M)” value in assay [4] (260 pmol/day/7 days) was 12.54 ± 1.83 S/M.

Take `C=C1[C@H](O)CC(=C/C=C2\CCC[C@@]3(C)C2CCC3[C@H](C)/C=C/[C@@H](C)C(C)(C)O)C[C@H]1O` (stereo partly drawn) [(20R,24R)D2, (20R,24R)-1α,25-dihydroxy-2-methylene-19-nor-vitamin D2]: in assay [1], the “Binding to the vitamin D receptor compared with 1,25(OH)2D3” value is recorded as “more active than 1,25(OH)2D3”. In assay [2], the “HL-60 differentiation potency compared with 1,25(OH)2D3” value is on record as “significantly more potent than 1,25(OH)2D3”. Further, the “Mobilization of calcium from bone compared with 1α,25-dihydroxyvitamin D3” value in assay [3] is listed as “minimal activity on bone”. The “Serum Calcium” value in assay [3] (130 pmol/day/7 days) amounted to 4.5 ± 0.05 mg/100 mL; in assay [3] (260 pmol/day/7 days) it was 5.02 ± 0.14 mg/100 mL. Further, the “Activity in stimulating intestinal calcium transport compared with 1α,25-dihydroxyvitamin D3” value in assay [4] is listed as “activity about the same as that of 1α,25-dihydroxyvitamin D3”. For the same compound, the “Intestinal Calcium Transport (S/M)” value in assay [4] (130 pmol/day/7 days) worked out at 12.2 ± 1.22 S/M; in assay [4] (260 pmol/day/7 days) it was 11.58 ± 0.66 S/M.
